Experimental data as given in patent US20030215787A1, “Modulators of the CLC-7 chloride channel and methods for their identification and use in the treatment and prevention of osteoporosis and related disease states” (priority 2002, published 2003).

B1: RANKL: recombinant soluble RANKL: extracellular domain of human RANKL (amino acids 158-317) fused to glutathione-S-transferase, expressed in E. coli (protein, UniProt O14788 158-317, looked up, fragment)
chain: SKLEAQPFAHLTINATDIPSGSHKVSLSSWYHDRGWAKISNMTFSNGKLIVNQDGFYYLYANICFRHHETSGDLATEYLQLMVYVTKTSIKIPSSHTLMKGGSTKYWSGNSEFHFYSINVGGFFKLRSGEEISIEVSNPSLLDPDQDATYFGAFKVRDID
modifications: extracellular domain GST fusion
notes: recombinant soluble RANKL: extracellular domain of human RANKL (amino acids 158-317) fused to glutathione-S-transferase, expressed in E. coli

Assays:
mature osteoclasts = details: known non-specific chloride channel inhibitor; cited from earlier work
Raw264.7 cells = experiment: RNAi transfection and bone resorption (bovine cortical bone particles, C-telopeptide Crosslaps ELISA); format: cell-based, mouse; details: 100 ng/ml RANKL, day 7, FIG. 2
Experimental: For RNAi transfection and bone resorption, the experiment was performed as follows: 1×10^4 Raw264.7 cells were seeded per 48 well and were cultured for 4 days with 100 ng/ml RANKL. The RNAi reagent was obtained from Sequitur. On day 4, the cells were transfected with 150 nM RNAi and 2 μg/ml lipofectamine overnight. The next day, the medium was replaced and 10 mg of powered bovine cortical bone particles (PelFreeze, Inc) were distributed into each well (James, I. E., et al. (1999) J. Bone Miner. Res., 14:1562-9). The particles were resuspended in […] of tissue culture media and incubated at 4° C. for 24 h storage. 200 μl bone particles were added to the precultured cells. The bone particles were allowed to settle for 10 min, and the cells were cultured for another 48 h at which time 100 μl of the supernatant was removed for the C-telopeptide Crosslaps™ ELISA analysis according to the manufacturer's instructions (Nordic Bioscience/Denmark). The absorbance was measured at 450 nm (Molecular Devices, Sunnyvale, Calif.).

Molecule | acidification of mature osteoclasts (mature osteoclasts) | increase of bone resorption (Raw264.7 cells) [fold]
O=C(O)c1cccnc1Nc1cccc(C(F)(F)F)c1 [niflumic acid] | inhibits the acidification | 
B1 |  | 2.2
